Read-outs that look alike come from different tables or passages of the source. Values belong to the compound of their own block, whether it stands above or below them.
Columns and labels:
[1] = tested on: A. muciniphila strain (MDA-JAX AM001); assay: Growth of A. muciniphila in BYEM10+ mucin medium (OD600 nm up to 48 hrs); type: cell-based, Akkermansia muciniphila
Protocol: SCFAs were added in 10 and 20 mM final concentration to bacterial culture. Growth of the bacteria at 37° C. in BYEM10+ mucin medium was read at OD600 nm continuously up to 48 hrs. Control Akkermansia culture was grown in absence of compounds.
Using a high-throughput screening strategy analyzing ˜1800 compounds, various other natural compounds in addition to SCFAs were identified for their potential to delay and/or suppress growth of MDA-JAX AM001. […] Growth of the bacteria at 37° C. in BYEM10+ mucin medium was read at OD600 nm continuously up to 48 hrs. Control Akkermansia culture was grown in absence of compounds.
Several active ruminal metabolites were also tested for their ability to delay and/or suppress growth of MDA-JAX AM001. Compounds were selected based on initial testing of Akkermansia growth in medium containing 1× to 3× concentrated ruminal fluid, followed by analysis of metabolite content by MALDI-TOF mass-spectrometry. Ruminal metabolite compounds tested included Malic acid (2 mM and 5.6 mM), 3-Indole acetic acid (5.6 mM and 8.6 mM), Hydrocinnamic acid (2.66 mM and 3.99 mM), Methylmalonic acid (8.4 mM and 10.6 mM), Glucoranic acid (16.8 mM), Galacturonic acid (14 mM), and Bis-hydroxy methyl propionic acid (22 mM). These ruminal metabolite compounds have also been found in human stool, as analyzed by MALDI-TOF mass spectrometry. […] Growth of the bacteria at 37° C. in BYEM10+ mucin medium was read at OD600 nm continuously up to 48 hrs. Control Akkermansia culture was grown in absence of compounds.

[2] = tested on: A. muciniphila (MDA-JAX AM001); settings: for mucin glycan utilization by A. muciniphila: physiological concentrations, varying pH, 48 hours of culture
Protocol: The impact of DR-induced metabolic changes in the colonic lumen on A. muciniphila behavior was also studied using an in vitro mucin glycan consumption assay. A novel A. muciniphila (MDA-JAX AM001) strain was isolated from the feces of C57BL6 mice and introduced to liquid media supplemented with PGM, and the effects of varying pH either alone or combined with the presence of physiological concentrations of acetate, propionate, and butyrate were evaluated.

Akkermansia [3] = tested on: Akkermansia
Akkermansia [4] = assay: Dietary restriction in mice with narrow-spectrum antibiotics in the drinking water; type: in vivo; settings: antibiotic in drinking water from 5 days prior to dietary restriction
Excerpt: Diet is a major determinant of intestinal microbiome composition, and the indirect impact of RT on microbiome composition due to a reduction in intake of food in mice was investigated. Mice were individually housed in metabolic cages following RT to quantify effects of RT on food and water intake. Within 2 days following RT, mice had reduced their oral intake to approximately 2 grams a day, or a 50% reduction (FIG. 3A). To evaluate whether dietary restriction (DR) could impact intestinal microbiome composition and the colonic mucus layer, normal, un-irradiated mice were limited 2 grams of chow per mouse per day for 7 days.
Because commercially-available mice lacking Akkermansia are not easy to find (12), narrow-spectrum antibiotics were used to evaluate the specific contribution of Akkermansia to mucus thinning during DR.

Akkermansia [5] = assay: Total body radiotherapy (9 Gy RT) mice treated with azithromycin or propionate; type: in vivo; settings: for colonic mucus layer thickness: 9 Gy total body RT; for colonic tissue levels of IL-1b, CCL2, CCL7, IL-22, CXCL1 and CXCL10 / ocular surface temperatures (hypothermia) / outgrowth of Akkermansia: day 6 after RT; for outgrowth of Akkermansia: 16S rRNA gene sequencing
Protocol: C57BL/6 mice were exposed to a single myeloablative dose of total body radiotherapy (9 Gy RT), and stool samples were evaluated 6 days later by 16S rRNA gene sequencing. […] Colonic tissue samples were cut cross-sectionally and mucus layer thickness was averaged across 8 equally-spaced circumferential sites (FIG. 7) to evaluate whether the dense colonic mucus layer, which normally separates bacteria-rich luminal contents from the colonic epithelium, was affected by irradiation in mice.
Additionally, ocular surface temperatures were non-invasively measured in mice using a published method (16) because in contrast to humans, mice are develop hypothermia in response to exposure to inflammatory ligands such as LPS (17) and in models of sepsis (18).
The degree of inflammation in colonic tissue was directed measured by quantifying levels of a panel of cytokines (FIG. 5C).

[6] = human, in vivo
Protocol: In this study, data from 295 patients with acute myeloid leukemia (AML) or myelodysplastic syndrome (MDS) who underwent allo-HSCT with tacrolimus and methotrexate as GVHD prophylaxis following conditioning therapy with fludarabine and 5 busulfan from 2011 to 2016 were retrospectively examined. The incidence of acute intestinal GVHD until day 100 after transplant was evaluated and compared were patients who received neither cefepime nor meropenem, those who received cefepime alone, those who received meropenem alone, and those who received both cefepime and meropenem during the period from days −10 to 30 relative to allo-HSCT infusion.
Retrospective study design. 295 patients with acute myeloid leukemia (AML) or myelodysplastic syndrome (MDS) underwent allogeneic hematopoietic stem cell transplantation (allo-HSCT) with fludarabine plus busulfan as conditioning therapy and tacrolimus and methotrexate as GVHD prophylaxis from 2011 and 2016 and were analyzed retrospectively. Patients were classified by antibiotic exposures, including those who received neither cefepime nor meropenem, those who received cefepime alone, those who received meropenem alone and those who received both cefepime and meropenem from day −10 to day 30 after allo-HSCT. Acute GVHD was diagnosed by clinical and/or pathological findings, and graded according to standard criteria (56).

[7] = Melphalan therapy in mice: intestinal microbiome and colonic mucus layer; type: in vivo; settings: 6 days following melphalan 20 mg/kg, C57BL/6 mice
Excerpt: Myeloablative RT, previously a foundational pillar that made HCT possible, has been progressively replaced by chemotherapy, particularly alkylating agents (11). […] An expansion of Bacteroides was also seen, though this was not statistically significant after correction for multiple comparisons, and was accompanied by a loss of Muribaculaceae, similar to that following RT.

[8] = Malic acid 2 and 5.6 mM, 3-Indole acetic acid 5.6 and 8.6 mM, Hydrocinnamic acid 2.66 and 3.99 mM, Methylmalonic acid 8.4 and 10.6 mM, Glucoranic acid 16.8 mM, Galacturonic acid 14 mM, Bis-hydroxy methyl propionic acid 22 mM
[9] = Brucine 2.5 and 5 mM, Methyl-β-D-galactopyranoside 14 mM, Resacetophenone 3.3 and 5 mM, Serotonin 4.7 and 7.1 mM
[10] = acidified drinking water (pH3), one week dietary restriction
[11] = 10 mM and 20 mM, vs mucin-only control, 37° C.
[12] = drinking water at neutral pH, dietary restriction

SMILES: O=C(O)Cc1c[nH]c2ccccc12 [3-Indole acetic acid]
growth of MDA-JAX AM001 [1, 8]: delay and inhibit MDA-JAX AM001 growth

SMILES: CC(CO)(CO)C(=O)O [Bis-hydroxy methyl propionic acid]
growth of MDA-JAX AM001 [1, 8]: delay and inhibit MDA-JAX AM001 growth

SMILES: COc1cc2c(cc1OC)[C@@]13CCN4CC5=CCO[C@H]6CC(=O)N2[C@H]1[C@H]6[C@H]5C[C@H]43 [Brucine]
growth of MDA-JAX AM001 [1, 9]: delay and suppress the growth of MDA-JAX AM001

SMILES: O=C[C@H](O)[C@@H](O)[C@@H](O)[C@H](O)C(=O)O [Galacturonic acid]
growth of MDA-JAX AM001 [1, 8]: delay and inhibit MDA-JAX AM001 growth

SMILES: O=C(O)CCc1ccccc1 [Hydrocinnamic acid]
growth of MDA-JAX AM001 [1, 8]: delay and inhibit MDA-JAX AM001 growth

SMILES: O=C(O)CC(O)C(=O)O (stereo not drawn) [Malic acid]
growth of MDA-JAX AM001 [1, 8]: delay and inhibit MDA-JAX AM001 growth

SMILES: CO[C@@H]1O[C@H](CO)[C@H](O)[C@H](O)[C@H]1O [Methyl-β-D-galactopyranoside]
growth of MDA-JAX AM001 [1, 9]: delay and suppress the growth of MDA-JAX AM001

SMILES: CC(C(=O)O)C(=O)O [Methylmalonic acid]
growth of MDA-JAX AM001 [1, 8]: delay and inhibit MDA-JAX AM001 growth

SMILES: CC(=O)c1ccc(O)cc1O [Resacetophenone]
growth of MDA-JAX AM001 [1, 9]: delay and suppress the growth of MDA-JAX AM001

SMILES: NCCc1c[nH]c2ccc(O)cc12 [Serotonin]
growth of MDA-JAX AM001 [1, 9]: delay and suppress the growth of MDA-JAX AM001

SMILES: CC(=O)[O-].[Na+] [acetate, sodium acetate]
mucin glycan utilization by A. muciniphila [2]: negligible effects on A. muciniphila behavior
expansion of Akkermansia (Akkermansia [3]; [10]): no such preventative effect
fecal / colonic luminal pH (Akkermansia [3]; [10]): lowering the pH in the colonic lumen
thinning of the colonic mucus layer (Akkermansia [3]; [10]): no such preventative effect

SMILES: CC[C@H]1OC(=O)[C@H](C)[C@@H](O[C@H]2C[C@@](C)(OC)[C@@H](O)[C@H](C)O2)[C@H](C)[C@@H](O[C@@H]2O[C@H](C)C[C@H](N(C)C)[C@H]2O)[C@](C)(O)C[C@@H](C)CN(C)[C@H](C)[C@@H](O)[C@]1(C)O [azithromycin]
bacterial populations depleted (Akkermansia [4]): depleted Akkermansia as well as some gram positive populations
colonic mucus layer thinning during dietary restriction (Akkermansia [4]): prevented thinning of the colonic mucus layer
colonic mucus layer thickness (Akkermansia [5]): effective in preserving colonic mucus layer thickness
colonic tissue levels of IL-1b, CCL2, CCL7, IL-22, CXCL1 and CXCL10 (Akkermansia [5]): reduced
ocular surface temperatures (hypothermia) (Akkermansia [5]): less depressed at day 6
outgrowth of Akkermansia (Akkermansia [5]): very effective at preventing outgrowth of Akkermansia

SMILES: CCCC(=O)[O-].[Na+] [butyrate, sodium butyrate]
mucin glycan utilization by A. muciniphila [2]: negligible effects on A. muciniphila behavior

Acute GVHD Grade 0, number of patients [6]: 57
Acute GVHD Grade 0, percentage of patients [6]: (46%)
Acute GVHD Grade I, number of patients [6]: 26
Acute GVHD Grade I, percentage of patients [6]: (21%)
Acute GVHD Grade II, number of patients [6]: 34
Acute GVHD Grade II, percentage of patients [6]: (27%)
Acute GVHD Grade III-IV, number of patients ([6]; iv): 7
Acute GVHD Grade III-IV, percentage of patients ([6]; iv): (6%)
SMILES: CO/N=C(\C(=O)N[C@@H]1C(=O)N2C(C(=O)[O-])=C(C[N+]3(C)CCCC3)CS[C@H]12)c1csc(N)n1 [cefepime]

SMILES: CC(C)CC(=O)O [isovalerate]
growth of MDA-JAX AM001 [1, 11]: suppress and/or delay MDA-JAX AM001 growth

SMILES: N[C@@H](Cc1ccc(N(CCCl)CCCl)cc1)C(=O)O [melphalan]
changes in the intestinal microbiome [7]: increase in the abundance of Akkermansia
colonic mucus layer thickness [7]: significantly thinner

SMILES: CCC(=O)[O-].[Na+] [propionate, sodium propionate]
colonic mucus layer thickness (Akkermansia [5]): effective in preserving colonic mucus layer thickness
colonic tissue levels of IL-1b, CCL2, CCL7, IL-22, CXCL1 and CXCL10 (Akkermansia [5]): prevented elevation of all of these cytokines, with the exception of CXCL1
ocular surface temperatures (hypothermia) (Akkermansia [5]): less depressed at day 6
outgrowth of Akkermansia (Akkermansia [5]): not effective
growth of A. muciniphila ([2]; higher levels, OD 600): delays in growth
mucin glycan utilization by A. muciniphila [2]: inhibitory effects on mucin glycan utilization
expansion of Akkermansia (Akkermansia [3]; [10]): mitigated expansion of Akkermansia
fecal / colonic luminal pH (Akkermansia [3]; [10]): reduced fecal pH
thinning of the colonic mucus layer (Akkermansia [3]; [10]): prevented thinning of the mucus layer
expansion of Akkermansia (Akkermansia [3]; [12]): trended towards preventing Akkermansia expansion
thinning of the colonic mucus layer (Akkermansia [3]; [12]): sufficient to prevent mucus thinning

SMILES: [H]/N=C(/N)N[C@H]1[C@H](O)[C@@H](O)[C@H](O[C@@H]2O[C@@H](C)[C@](O)(C=O)[C@H]2O[C@@H]2O[C@@H](CO)[C@H](O)[C@@H](O)[C@@H]2NC)[C@@H](N/C(N)=N\[H])[C@@H]1O [streptomycin]
bacterial populations depleted (Akkermansia [4]): depleted certain gram-positive bacteria
colonic mucus layer thinning during dietary restriction (Akkermansia [4]): Neither streptomycin nor vancomycin had a significant effect on mucus barrier loss

SMILES: CCCCC(=O)O [valerate]
growth of MDA-JAX AM001 [1, 11]: suppress and/or delay MDA-JAX AM001 growth

SMILES: CN[C@H](CC(C)C)C(=O)N[C@H]1C(=O)N[C@@H](CC(N)=O)C(=O)N[C@H]2C(=O)N[C@H]3C(=O)N[C@H](C(=O)N[C@H](C(=O)O)c4cc(O)cc(O)c4-c4cc3ccc4O)[C@H](O)c3ccc(c(Cl)c3)Oc3cc2cc(c3O[C@@H]2O[C@H](CO)[C@@H](O)[C@H](O)[C@H]2O[C@H]2C[C@](C)(N)[C@H](O)[C@H](C)O2)Oc2ccc(cc2Cl)[C@H]1O [vancomycin]
bacterial populations depleted (Akkermansia [4]): depleted both gram-positive bacteria and some Bacteroidetes
colonic mucus layer thinning during dietary restriction (Akkermansia [4]): Neither streptomycin nor vancomycin had a significant effect on mucus barrier loss
